Test results taken from US8546608B2, “Proteasome inhibitors and methods of using the same” (Cephalon, Inc., priority 2003, dated 2013).
Where a name gives a salt, the structure may show the parent alone. Read-outs that look alike come from different tables or passages of the source.

Key:
[1] = molecular target: T1, 20S Human Erythrocyte Proteasome (HEP) (Homo sapiens, UniProt P20618+P28074); assay: Chymotrypsin-like activity of 20S Human Erythrocyte Proteasome (HEP), IC50 determination; type: biochemical; details: assay of Example C, inhibition of HEP
T1 construct: 20S Human Erythrocyte Proteasome (HEP), purchased from Immatics Biotechnologies Inc; purchased Immatics Biotechnologies Inc., Tübingen, Germany; host or cells: human erythrocytes (natural source)
Summary of the method: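 20S proteasome at 0.2 μg/mL (about 0.6 nM catalytic sites) in 20 mM Tris with 0.04% SDS, preincubated 15 min at 37° C with inhibitor before Suc-LLVY-AMC (100 μM final). AMC fluorescence read in the linear range; triplicates, IC50 from concentration series.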

[2] = molecular target: T2, proteasome in Molt-4 cells (human leukemia) (Homo sapiens, UniProt P20618+P28074); type: cell-based
T2 sequence (P28074 60-263): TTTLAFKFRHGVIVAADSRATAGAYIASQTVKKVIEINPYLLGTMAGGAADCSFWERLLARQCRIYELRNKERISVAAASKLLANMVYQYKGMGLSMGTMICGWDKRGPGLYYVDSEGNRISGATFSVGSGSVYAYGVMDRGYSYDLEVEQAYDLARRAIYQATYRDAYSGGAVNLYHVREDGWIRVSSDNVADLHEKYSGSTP
T2 sequence (P20618 29-241): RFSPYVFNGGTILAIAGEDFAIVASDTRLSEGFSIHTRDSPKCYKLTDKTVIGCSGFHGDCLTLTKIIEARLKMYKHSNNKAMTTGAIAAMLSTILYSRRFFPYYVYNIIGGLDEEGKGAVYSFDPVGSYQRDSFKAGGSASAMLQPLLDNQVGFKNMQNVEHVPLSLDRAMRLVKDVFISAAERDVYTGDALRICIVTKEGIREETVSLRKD
Summary of the method: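 Intact Molt-4 cells (6×10^6 cells/mL) in HEPES-buffered saline were preincubated with inhibitor 15 min at 37 °C, then given cell-permeable MeOSuc-FLF-AFC at 25 μM final.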

[3] = read-out: MOLT4 (EC50); assay of Example E, inhibition of MOLT4
[4] = assay of Example E, inhibition of MOLT4; read-out: MOLT4 (EC50)

In the case of COCCOCC(=O)N[C@@H](CCCNC(=N)N[N+](=O)[O-])C(=O)N[C@@H](CC(C)C)B(O)O [E.1.6, Boronic acid, [(1R)-1-[[(2S)-5-[[imino(nitroamino)methyl]amino]-2-[[2-(2-methoxyethoxy)acetyl]amino]-1-oxopentyl]amino]-3-methylbutyl], HCl salt], the IC50 [1] is reported as less than 100 nM and the EC50 [2, 3] is reported as 2000 to 10000 nM.

Work on CCCCOCC(=O)N[C@@H](CCCNC(=N)N[N+](=O)[O-])C(=O)N[C@@H](CC(C)C)B(O)O [E.1.7, Boronic acid, [(1R)-1-[[(2S)-5-[[imino (nitroamino)methyl]amino]-2-[(2-butoxyacetyl)amino]-1-oxopentyl]amino]-3-methylbutyl]] yielded an IC50 [1] of less than 10 nM and an EC50 [2, 4] of 2000 to 10000 nM.

COCCOCCOCC(=O)N[C@@H](CCCNC(=N)N[N+](=O)[O-])C(=O)N[C@@H](CC(C)C)B(O)O [E.1.8, Boronic acid, [(1R)-1-[[(2S)-5-[[imino(nitroamino)methyl]amino]-2-[[2-[2-(2-methoxyethoxy)ethoxy]acetyl]amino]-1-oxopentyl]amino]-3-methylbutyl]] was tested, and the IC50 [1] was less than 10 nM and the EC50 [2, 4] was greater than 10000 nM.

CC(C)C[C@H](NC(=O)[C@H](CCCNC(=N)N[N+](=O)[O-])NC(=O)COc1ccc2ccccc2c1)B(O)O [E.1.11, Boronic acid, [(1R)-1-[[(2S)-5-[[imino(nitroamino)methyl]amino]-2-[(2-(naphthalen-2-yloxy)acetyl]amino]-1-oxopentyl]amino]-3-methylbutyl]] was tested, and the IC50 [1] was less than 10 nM and the EC50 [2, 4] was 200 to 2000 nM.

For CC(C)C[C@H](NC(=O)[C@H](CCCNC(=N)N[N+](=O)[O-])NC(=O)CCc1cccs1)B(O)O [E.1.12, Boronic acid, [(1R)-1-[[(2S)-5-[[imino(nitroamino)methyl]amino]-2-[(3-thiophen-2-yl-propanoyl)amino]-1-oxopentyl]amino]-3-methylbutyl]], the IC50 [1] was less than 10 nM and the EC50 [2, 4] was greater than 10000 nM.

CC(C)C[C@H](NC(=O)[C@H](CCCNC(=N)N[N+](=O)[O-])NC(=O)Cc1ccccc1Cl)B(O)O [E.1.13, Boronic acid, [(1R)-1-[[(2S)-5-[[imino(nitroamino)methyl]amino]-2-[2-(2-chlorophenyl)acetyl]amino]-3-methylbutyl] HCl salt] gave an IC50 [1] of less than 10 nM and an EC50 [2, 3] of 2000 to 10000 nM.

In the case of CCCCCCCCS(=O)(=O)N[C@@H](CCCNC(=N)N[N+](=O)[O-])C(=O)N[C@@H](CC(C)C)B(O)O [E.1.15, Boronic acid, [(1R)-1-[[(2S)-5-[[imino(nitroamino)methyl]amino]-2-[(1-octanesulfonyl)amino]-1-oxopentyl]amino]-3-methylbutyl], HCl salt], the IC50 [1] is reported as less than 10 nM and the EC50 [2, 3] is reported as 200 to 2000 nM.

Work on CCCCCCCCCC(=O)N[C@@H](CNC(=O)c1ccc(C)cc1)C(=O)N[C@@H](CC(C)C)B(O)O [E.1.16, Boronic acid, [(1R)-1-[[(2S)-3-[(4-methylbenzoyl)amino]-2-[(decanoylamino)]-1-oxopropyl]amino]-3-methylbutyl]] yielded an IC50 [1] of less than 10 nM and an EC50 [2, 4] of less than 200 nM.

Compound CCCCCCCCCC(=O)N[C@H](C(=O)N[C@@H](CC(C)C)B(O)O)[C@@H](C)O [E.1.17, Boronic acid, [(1R)-1-[[(2S,3R)-3-hydroxy-2-[(decanoyl)amino]-1-oxobutyl]amino]-3-methylbutyl]] has an IC50 [1] of less than 10 nM and an EC50 [2, 4] of less than 200 nM.

Compound CC(C)C[C@H](NC(=O)[C@@H](NC(=O)CCCCCCCCCN1C(=O)c2ccccc2C1=O)[C@@H](C)O)B(O)O [E.1.18, Boronic acid, [(1R)-1-[[(2S,3R)-3-hydroxy-2-[[10-(1,3-dioxo-1,3-dihydro-isoindol-2-yl)-decanoyl]amino]-1-oxobutyl]amino]-3-methylbutyl]] has an IC50 [1] of less than 10 nM and an EC50 [2, 4] of less than 200 nM.

CC(C)C[C@H](NC(=O)[C@H](CCCNC(=N)N[N+](=O)[O-])NC(=O)CCCCCCCCCN1C(=O)c2ccccc2C1=O)B(O)O [E.1.20] showed an IC50 [1] of less than 10 nM and an EC50 [2, 4] of less than 200 nM.

CC(C)C[C@H](NC(=O)[C@H](CCCN/C(N)=N/[N+](=O)[O-])NC(=O)C(CCCCCCCCN1C(=O)c2ccccc2C1=O)C1CCCC1)B(O)O (stereo partly shown) [E.1.21] showed an IC50 [1] of less than 10 nM and an EC50 [2, 4] of less than 200 nM.

For COC(=O)CCCCCCC(=O)N[C@@H](CCCNC(=N)N[N+](=O)[O-])C(=O)N[C@@H](CC(C)C)B(O)O [E.1.22, Boronic acid, [(1R)-1-[[(2S)-5-[[imino(nitroamino)methyl]amino]-2-[[7-(methoxycarbonyl)heptanoyl]amino]-1-oxopentyl]amino]-3-methylbutyl]], the IC50 [1] was less than 10 nM and the EC50 [2, 4] was greater than 10000 nM.

For CC(C)C[C@H](NC(=O)[C@@H](NC(=O)CCCc1ccccc1)[C@@H](C)O)B(O)O [E.1.23, Boronic acid, [(1R)-1-[[(2S,3R)-3-hydroxy-2-[(4-phenylbutanoyl)amino]-1-oxobutyl]amino]-3-methylbutyl]], the IC50 [1] was less than 10 nM and the EC50 [2, 4] was less than 200 nM.

CCCCCCCCCCCNC(=O)N[C@H](C(=O)N[C@@H](CC(C)C)B(O)O)[C@@H](C)O [E.1.24, Boronic acid, [(1R)-1-[[(2S,3R)-3-hydroxy-2-[(undecylaminocarbonyl)amino]-1-oxobutyl]amino]-3-methylbutyl]] gave an IC50 [1] of less than 10 nM and an EC50 [2, 4] of less than 200 nM.

Work on CC(C)C[C@H](NC(=O)[C@@H](NC(=O)c1ccc2ccccc2c1Br)[C@@H](C)O)B(O)O [E.1.25, Boronic acid, [(1R)-1-[[(2S,3R)-3-hydroxy-2-[(1-Bromo-2-naphthoyl)amino]-1-oxobutyl]amino]-3-methylbutyl]] yielded an IC50 [1] of less than 10 nM and an EC50 [2, 4] of less than 200 nM.

In the case of CC(C)C[C@H](NC(=O)[C@@H](NC(=O)c1ccc2cc(Br)ccc2c1)[C@@H](C)O)B(O)O [E.1.26, Boronic acid, [(1R)-1-[[(2S,3R)-3-hydroxy-2-[(6-Bromo-2-naphthoyl)amino]-1-oxobutyl]amino]-3-methylbutyl]], the IC50 [1] is reported as less than 10 nM and the EC50 [2, 4] is reported as less than 200 nM.

Compound CCCCCCCCCC(=O)N[C@@H](CC(N)=O)C(=O)N[C@@H](CC(C)C)B(O)O [E.1.27, Boronic acid, [(1R)-1-[[(2S)-3-carbamoyl-2-[(decanoyl)amino]-1-oxopropyl]amino]-3-methylbutyl]] has an IC50 [1] of less than 10 nM and an EC50 [2, 4] of less than 200 nM.

Compound CCCCc1ccc(C(=O)N[C@@H](CC(N)=O)C(=O)N[C@@H](CC(C)C)B(O)O)cc1 [E.1.28, Boronic acid, [(1R)-1-[[(2S)-3-carbamoyl-2-[4-butyl(benzoyl)amino]-1-oxopropyl]amino]-3-methylbutyl]] has an IC50 [1] of less than 10 nM and an EC50 [2, 4] of 200 to 2000 nM.

CCCCCCCCCC(=O)N[C@@H](CCCNC(N)=O)C(=O)N[C@@H](CC(C)C)B(O)O [E.1.29, Boronic acid, [(1R)-1-[[(2S)-2-[(decanoyl)amino]-1-oxo-5-ureido-pentyl]amino]-3-methylbutyl]] showed an IC50 [1] of less than 10 nM and an EC50 [2, 4] of 200 to 2000 nM.

For CCCCc1ccc(C(=O)N[C@@H](CCCNC(N)=O)C(=O)N[C@@H](CC(C)C)B(O)O)cc1 [E.1.30, Boronic acid, [(1R)-1-[[(2S)-2-[(4-butylbenzoyl)amino]-1-oxo-5-ureido-pentyl]amino]-3-methylbutyl]], the IC50 [1] was less than 10 nM and the EC50 [2, 4] was 2000 to 10000 nM.

CCCCCCCCCC(=O)N[C@@H](CCCNC(=N)N[N+](=O)[O-])C(=O)N[C@@H](CC(C)C)B(O)O [E.2.1, Boronic acid, [(1R)-1-[[(2S)-5-[[imino(nitroamino)methyl]amino]-2-[(1-oxodecyl)amino]-1-oxopentyl]amino]-3-methylbutyl]] was tested, and the IC50 [1] was less than 10 nM and the EC50 [2, 4] was less than 200 nM.

In the case of CCCCCCCC(=O)N[C@@H](CCCNC(=N)N[N+](=O)[O-])C(=O)N[C@@H](CC(C)C)B(O)O [E.2.2, Boronic acid, [(1R)-1-[[(2S)-5-[[imino(nitroamino)methyl]amino]-2-[(octanoyl)amino]-1-oxopentyl]amino]-3-methylbutyl]], the IC50 [1] is reported as less than 10 nM and the EC50 [2, 4] is reported as 200 to 2000 nM.

With CC(C)C[C@H](NC(=O)[C@H](CCCNC(=N)N[N+](=O)[O-])NC(=O)C1(c2ccccc2)CCCC1)B(O)O [E.2.3, Boronic acid, [(1R)-1-[[(2S)-5-[[imino(nitroamino)methyl]amino]-2-[(1-phenylcyclopentanecarbnyl)amino]-1-oxopentyl]amino]-3-methylbutyl]] the IC50 [1] was less than 10 nM and the EC50 [2, 4] was 2000 to 10000 nM.

CC[C@@H](C(=O)N[C@@H](CCCNC(=N)N[N+](=O)[O-])C(=O)N[C@@H](CC(C)C)B(O)O)c1ccccc1 [E.2.4, Boronic acid, [(1R)-1-[[(2S)-5-[[imino(nitroamino)methyl]amino]-2-[((2R)-2-phenylbutanoyl)amino]-1-oxopentyl]amino]-3-methylbutyl]] showed an IC50 [1] of less than 10 nM and an EC50 [2, 4] greater than 10000 nM.

CC(C)C[C@H](NC(=O)[C@H](CCCNC(=N)N[N+](=O)[O-])NC(=O)C1CCC(C(C)(C)C)CC1)B(O)O (stereo partly drawn) [E.2.5, Boronic acid, [(1R)-1-[[(2S)-5-[[imino(nitroamino)methyl]amino]-2-[[4-(1,1-Dimethylethyl)cyclohexanecarbonyl]amino]-1-oxopentyl]amino]-3-methylbutyl]] was tested, and the IC50 [1] was less than 10 nM and the EC50 [2, 4] was 2000 to 10000 nM.
